Where “and” joins values, the source holds several entries; their conditions need not be identical. Equal entries are not always repeated. Numbers after ± are expanded uncertainties.
Experiments:
[1] = 101 kPa, Liquid
[2] = xn = mol fraction of the nth substance listed; settings: 101 kPa, Liquid

Clc1ccccc1 [chlorobenzene]
[1]
Settings | mass density | speed of sound [m/s] | viscosity [mPa·s]
298.15 K | 1100.97 ± 0.34 kg/m3 and 1100.67 ± 0.34 kg/m3 | 1268 ± 1.4 | 0.757 ± 0.014
303.15 K | 1095.1 ± 0.33 kg/m3 | 1249.4 ± 1.4 | 0.714 ± 0.014
308.15 K | 1089.08 ± 0.32 kg/m3 | 1230.9 ± 1.4 | 0.677 ± 0.014
313.15 K | 1083.66 ± 0.31 kg/m3 | 1212.6 ± 1.4 | 0.617 ± 0.013

CCCCCCCCCCO [decan-1-ol]
[1]
Settings | mass density [kg/m3] | speed of sound [m/s] | viscosity [mPa·s]
298.15 K | 826.762 ± 0.43 | 1380 ± 1.5 | 11.83 ± 0.1
303.15 K | 822.853 ± 0.43 | 1365 ± 1.5 | 9.754 ± 0.087
308.15 K | 819.427 ± 0.44 | 1346.1 ± 1.4 | 8.135 ± 0.074
313.15 K | 815.983 ± 0.45 | 1329.3 ± 1.4 | 6.842 ± 0.063

CCCCCCCO [heptan-1-ol]
[1]
Settings | mass density [kg/m3] | speed of sound [m/s] | viscosity [mPa·s]
298.15 K | 818.732 ± 0.44 | 1327.3 ± 1.4 | 5.944 ± 0.056
303.15 K | 815.287 ± 0.45 | 1313.6 ± 1.4 | 5.069 ± 0.049
308.15 K | 811.737 ± 0.45 | 1293.9 ± 1.4 | 4.333 ± 0.043
313.15 K | 808.162 ± 0.46 | 1277.2 ± 1.4 | 3.726 ± 0.038

CCCCCCO [hexan-1-ol]
[1]
Settings | mass density [kg/m3] | speed of sound [m/s] | viscosity [mPa·s]
298.15 K | 815.23 ± 0.45 | 1304.7 ± 1.4 | 4.594 ± 0.045
303.15 K | 812.118 ± 0.45 | 1287.9 ± 1.4 | 3.887 ± 0.039
308.15 K | 808.482 ± 0.46 | 1271.1 ± 1.4 | 3.359 ± 0.035
313.15 K | 804.811 ± 0.46 | 1254.5 ± 1.4 | 2.914 ± 0.031

CCCCCCCCCO [nonan-1-ol]
[1]
Settings | mass density [kg/m3] | speed of sound [m/s] | viscosity [mPa·s]
298.15 K | 824.478 ± 4 | 1365.5 ± 5.2 | 9.715 ± 0.26
303.15 K | 821.044 ± 4 | 1353.6 ± 5.2 | 7.927 ± 0.21
308.15 K | 817.582 ± 4 | 1331.8 ± 5.2 | 6.664 ± 0.18
313.15 K | 814.098 ± 4 | 1315 ± 5.2 | 5.645 ± 0.15

CCCCCCCCCO [nonan-1-ol] + Clc1ccccc1
[2]
Settings | mass density [kg/m3] | speed of sound [m/s] | viscosity [mPa·s]
298.15 K, x2 = 0 | 824.478 ± 4 | 1365.5 ± 5.2 | 9.715 ± 0.26
298.15 K, x2 = 0.1529 | 850.648 ± 3.2 | 1350.5 ± 4.5 | 6.576 ± 0.15
298.15 K, x2 = 0.3008 | 879.504 ± 2.5 | 1333.3 ± 3.9 | 4.488 ± 0.092
298.15 K, x2 = 0.4379 | 910.112 ± 1.8 | 1316.2 ± 3.3 | 3.135 ± 0.057
298.15 K, x2 = 0.5505 | 938.617 ± 1.4 | 1302.2 ± 2.9 | 2.329 ± 0.039
298.15 K, x2 = 0.6413 | 964.273 ± 1 | 1291.1 ± 2.5 | 1.828 ± 0.029
298.15 K, x2 = 0.7273 | 991.186 ± 0.73 | 1281.2 ± 2.2 | 1.455 ± 0.023
298.15 K, x2 = 0.8031 | 1017.42 ± 0.55 | 1274 ± 1.9 | 1.192 ± 0.019
298.15 K, x2 = 0.8744 | 1044.71 ± 0.44 | 1269 ± 1.7 | 0.999 ± 0.017
298.15 K, x2 = 0.937 | 1071.14 ± 0.38 | 1267.1 ± 1.5 | 0.864 ± 0.015
303.15 K, x2 = 0 | 821.044 ± 4 | 1353.6 ± 5.2 | 7.927 ± 0.21
303.15 K, x2 = 0.1529 | 846.995 ± 3.2 | 1332.6 ± 4.5 | 5.56 ± 0.13
303.15 K, x2 = 0.3008 | 875.625 ± 2.4 | 1315.8 ± 3.9 | 3.876 ± 0.08
303.15 K, x2 = 0.4379 | 906.014 ± 1.8 | 1299.5 ± 3.3 | 2.752 ± 0.051
303.15 K, x2 = 0.5505 | 934.309 ± 1.4 | 1286 ± 2.8 | 2.07 ± 0.035
303.15 K, x2 = 0.6413 | 959.757 ± 1 | 1275.1 ± 2.5 | 1.646 ± 0.027
303.15 K, x2 = 0.7273 | 986.433 ± 0.73 | 1265.4 ± 2.2 | 1.325 ± 0.021
303.15 K, x2 = 0.8031 | 1012.44 ± 0.54 | 1257.7 ± 1.9 | 1.097 ± 0.018
303.15 K, x2 = 0.8744 | 1039.48 ± 0.43 | 1252 ± 1.7 | 0.924 ± 0.016
303.15 K, x2 = 0.937 | 1065.72 ± 0.37 | 1249.1 ± 1.5 | 0.802 ± 0.015
308.15 K, x2 = 0 | 817.582 ± 4 | 1331.8 ± 5.2 | 6.664 ± 0.18
308.15 K, x2 = 0.1529 | 843.265 ± 3.2 | 1315.5 ± 4.5 | 4.745 ± 0.11
308.15 K, x2 = 0.3008 | 871.65 ± 2.4 | 1298.5 ± 3.9 | 3.365 ± 0.07
308.15 K, x2 = 0.4379 | 901.759 ± 1.8 | 1281.7 ± 3.3 | 2.433 ± 0.045
308.15 K, x2 = 0.5505 | 929.764 ± 1.4 | 1267.7 ± 2.8 | 1.858 ± 0.032
308.15 K, x2 = 0.6413 | 954.969 ± 1 | 1256.3 ± 2.5 | 1.493 ± 0.025
308.15 K, x2 = 0.7273 | 981.393 ± 0.73 | 1246.3 ± 2.1 | 1.205 ± 0.02
308.15 K, x2 = 0.8031 | 1007.14 ± 0.53 | 1238.5 ± 1.9 | 1.014 ± 0.017
308.15 K, x2 = 0.8744 | 1033.95 ± 0.42 | 1233 ± 1.7 | 0.869 ± 0.016
308.15 K, x2 = 0.937 | 1059.96 ± 0.36 | 1231.5 ± 1.5 | 0.764 ± 0.015
313.15 K, x2 = 0 | 814.098 ± 4 | 1315 ± 5.2 | 5.645 ± 0.15
313.15 K, x2 = 0.1529 | 839.584 ± 3.1 | 1299.4 ± 4.5 | 4.074 ± 0.096
313.15 K, x2 = 0.3008 | 867.761 ± 2.4 | 1282 ± 3.9 | 2.935 ± 0.062
313.15 K, x2 = 0.4379 | 897.663 ± 1.8 | 1264.9 ± 3.3 | 2.152 ± 0.041
313.15 K, x2 = 0.5505 | 925.493 ± 1.4 | 1251 ± 2.8 | 1.658 ± 0.029
313.15 K, x2 = 0.6413 | 950.508 ± 1 | 1239.8 ± 2.5 | 1.346 ± 0.023
313.15 K, x2 = 0.7273 | 976.738 ± 0.73 | 1229.8 ± 2.1 | 1.094 ± 0.019
313.15 K, x2 = 0.8031 | 1002.28 ± 0.51 | 1221.8 ± 1.9 | 0.919 ± 0.016
313.15 K, x2 = 0.8744 | 1028.88 ± 0.41 | 1215.6 ± 1.6 | 0.775 ± 0.015
313.15 K, x2 = 0.937 | 1054.7 ± 0.35 | 1213.3 ± 1.5 | 0.676 ± 0.014

CCCCCCCCO [octan-1-ol] + Clc1ccccc1
[2], x2 = 0
Settings | mass density [kg/m3] | speed of sound [m/s] | viscosity [mPa·s]
298.15 K | 821.826 ± 0.44 | 1347.8 ± 1.4 | 7.661 ± 0.07
303.15 K | 818.23 ± 0.44 | 1338 ± 10 | 6.402 ± 0.06
308.15 K | 814.737 ± 0.45 | 1314.3 ± 1.4 | 5.425 ± 0.052
313.15 K | 810.098 ± 0.45 | 1297.6 ± 1.4 | 4.628 ± 0.045

Source: the NIST ThermoML archive (doi:10.1021/je060353z)
